Experimental data published in patent publication US20080200337A1, “Mixed herbicide compositions for paddy field” (Bayer CropScience, priority 2007, published 2008).

Key:
Type in all cases: in vivo
[1] = tested on: Cyperus serotinus Rottboel; assay: Weed control, flooded paddy field, treatment at 1 leaf-stage (Test Example 1); conditions: after 4 weeks
Description: (§1) Carrier: 5 parts by weight of acetone
(§2) Surfactant: one part by weight of benzyloxy polyglycol ether.
(§3) Above described carrier and surfactant are mixed with one part by weight of the active compound ((a) ingredient and (b) ingredient) and the resulting preparation is then diluted with water to obtain given amount of the test drug (the formulation).
(§4) In a greenhouse, seeds or tubers of Echinochloa, Scirpus juncoides Roxburgh, Monochoria vaginalis Presl, annual broad-leaved weeds (Lindernia procumbens Philcox, Lindernia dubia L. Penn., Rotala indica Koehne, Elatine triandra Schk, Ammannia multiflora Roxb.), Cyperus serotinus Rottboel and Sagittaria pygmaea Miq. were inoculated in a 500 cm^2 pot filled with paddy field soil. After 2 leaf-stage of rice were transplanted, water was poured to a depth of about 3 cm. At 1.0 leaf-stage of Echinochloa oryzicola Vasing, a prescribed, diluted solution of the formulation of each active compound and each herbicidal compound in the table was separately or simultaneously applied to the surface of water. After the treatment, the water depth of 3 cm was maintained, and herbicidal effect was examined after 4 weeks. In the assessment of the herbicidal effect and the phytotoxicity, 100% refers to complete death and 0% refers to no effect or no phytotoxicity.

[2] = tested on: Echinochloa; assay: as above; conditions: after 4 weeks
Description: as §1, §2, §3, §4

[3] = tested on: Monochoria vaginalis Presl; assay: as above; conditions: after 4 weeks
Description: as §1, §2, §3, §4

[4] = tested on: Sagittaria pygmaea Miq.; assay: as above; conditions: after 4 weeks
Description: as §1, §2, §3, §4

[5] = tested on: Scirpus juncoides Roxburgh; assay: as above; conditions: after 4 weeks
Description: as §1, §2, §3, §4

[6] = tested on: annual broad-leaved weeds; assay: as above; conditions: after 4 weeks
Description: as §1, §2, §3, §4

[7] = tested on: transplanted rice; assay: Phytotoxicity, flooded paddy field, treatment at 1 leaf-stage (Test Example 1)
Description: as §1, §2, §3, §4

[8] = tested on: Cyperus serotinus Rottboel; assay: Weed control, flooded paddy field, treatment at 3 leaf-stage (Test Example 2); conditions: after 4 weeks
Description: as §1, §2, §3
as §4, with “Echinochloa, Cyperus difformis L.,” for “Echinochloa,”, “3.0” for “1.0”, “Echinochloa,” for “Echinochloa oryzicola Vasing,”

[9] = tested on: Echinochloa; assay: as above; conditions: after 4 weeks
Description: as §1, §2, §3
as §4, with “Echinochloa, Cyperus difformis L.,” for “Echinochloa,”, “3.0” for “1.0”, “Echinochloa,” for “Echinochloa oryzicola Vasing,”

[10] = tested on: Monochoria vaginalis Presl; assay: as above; conditions: after 4 weeks
Description: as §1, §2, §3
as §4, with “Echinochloa, Cyperus difformis L.,” for “Echinochloa,”, “3.0” for “1.0”, “Echinochloa,” for “Echinochloa oryzicola Vasing,”

[11] = tested on: Sagittaria pygmaea Miq.; assay: as above; conditions: after 4 weeks
Description: as §1, §2, §3
as §4, with “Echinochloa, Cyperus difformis L.,” for “Echinochloa,”, “3.0” for “1.0”, “Echinochloa,” for “Echinochloa oryzicola Vasing,”

[12] = tested on: Scirpus juncoides Roxburgh; assay: as above; conditions: after 4 weeks
Description: as §1, §2, §3
as §4, with “Echinochloa, Cyperus difformis L.,” for “Echinochloa,”, “3.0” for “1.0”, “Echinochloa,” for “Echinochloa oryzicola Vasing,”

[13] = tested on: annual broad-leaved weeds; assay: as above; conditions: after 4 weeks
Description: as §1, §2, §3
as §4, with “Echinochloa, Cyperus difformis L.,” for “Echinochloa,”, “3.0” for “1.0”, “Echinochloa,” for “Echinochloa oryzicola Vasing,”

[14] = tested on: transplanted rice; assay: Phytotoxicity, flooded paddy field, treatment at 3 leaf-stage (Test Example 2)
Description: as §1, §2, §3
as §4, with “Echinochloa, Cyperus difformis L.,” for “Echinochloa,”, “3.0” for “1.0”, “Echinochloa,” for “Echinochloa oryzicola Vasing,”

## Cc1ccc(C(=O)COc2c(C(=O)c3ccc(Cl)c(C)c3Cl)c(C)nn2C)cc1 [(b-3), benzofenap]
[1]; 800 g ai/ha
  Herbicidal effect (%) CYPSEE: 20%
[2]; 800 g ai/ha
  Herbicidal effect (%) ECHSS: 80%
[3]; 800 g ai/ha
  Herbicidal effect (%) MOOVP: 80%
[4]; 800 g ai/ha
  Herbicidal effect (%) SAGPY: 70%
[5]; 800 g ai/ha
  Herbicidal effect (%) SCPSS: 70%
[6]; 800 g ai/ha
  Herbicidal effect (%) BBBBB: 100%
[7]; 800 g ai/ha, treatment at 1 leaf-stage, after 4 weeks
  Phytotoxicity (%) ORYSP: 0%
[8]; 800 g ai/ha
  Herbicidal effect (%) CYPSEE: 0%
[9]; 800 g ai/ha
  Herbicidal effect (%) ECHSS: 10%
[10]; 800 g ai/ha
  Herbicidal effect (%) MOOVP: 50%
[11]; 800 g ai/ha
  Herbicidal effect (%) SAGPY: 60%
[12]; 800 g ai/ha
  Herbicidal effect (%) SCPSS: 0%
[13]; 800 g ai/ha
  Herbicidal effect (%) BBBBB: 70%
[14]; rice, in vivo, 4 weeks
  Phytotoxicity (%) ORYSP: 0%

## COC(=O)c1ccccc1CS(=O)(=O)NC(=O)Nc1nc(OC)cc(OC)n1 [(b-4), bensulfuron methyl]
[1]; 50 g ai/ha
  Herbicidal effect (%) CYPSEE: 85%
[2]; 50 g ai/ha
  Herbicidal effect (%) ECHSS: 50%
[3]; 50 g ai/ha
  Herbicidal effect (%) MOOVP: 90%
[4]; 50 g ai/ha
  Herbicidal effect (%) SAGPY: 90%
[5]; 50 g ai/ha
  Herbicidal effect (%) SCPSS: 90%
[6]; 50 g ai/ha
  Herbicidal effect (%) BBBBB: 90%
[7]; rice, in vivo, 4 weeks
  Phytotoxicity (%) ORYSP: 0%
[8]; 50 g ai/ha
  Herbicidal effect (%) CYPSEE: 80%
[9]; 50 g ai/ha
  Herbicidal effect (%) ECHSS: 20%
[10]; 50 g ai/ha
  Herbicidal effect (%) MOOVP: 90%
[11]; 50 g ai/ha
  Herbicidal effect (%) SAGPY: 80%
[12]; 50 g ai/ha
  Herbicidal effect (%) SCPSS: 85%
[13]; 50 g ai/ha
  Herbicidal effect (%) BBBBB: 90%
[14]; rice, in vivo, 4 weeks
  Phytotoxicity (%) ORYSP: 0%

## CCN(C(=O)n1nnn(-c2ccccc2Cl)c1=O)C1CCCCC1 [(b-6), fentrazamide]
[1]; 300 g ai/ha
  Herbicidal effect (%) CYPSEE: 95%
[2]; 300 g ai/ha
  Herbicidal effect (%) ECHSS: 95%
[3]; 300 g ai/ha
  Herbicidal effect (%) MOOVP: 95%
[4]; 300 g ai/ha
  Herbicidal effect (%) SAGPY: 50%
[5]; 300 g ai/ha
  Herbicidal effect (%) SCPSS: 95%
[6]; 300 g ai/ha
  Herbicidal effect (%) BBBBB: 85%
[7]; 300 g ai/ha, treatment at 1 leaf-stage, after 4 weeks
  Phytotoxicity (%) ORYSP: 0%
[8]; 300 g ai/ha
  Herbicidal effect (%) CYPSEE: 75%
[9]; 300 g ai/ha
  Herbicidal effect (%) ECHSS: 69%
[10]; 300 g ai/ha
  Herbicidal effect (%) MOOVP: 55%
[11]; 300 g ai/ha
  Herbicidal effect (%) SAGPY: 50%
[12]; 300 g ai/ha
  Herbicidal effect (%) SCPSS: 80%
[13]; 300 g ai/ha
  Herbicidal effect (%) BBBBB: 55%
[14]; 300 g ai/ha, treatment at 3 leaf-stage, after 4 weeks
  Phytotoxicity (%) ORYSP: 0%

## CS(=O)(=O)c1ccc(C(=O)C2C(=O)CCCC2=O)c(Cl)c1COCC1CCCO1 (stereo not drawn) [(b-7), 2-{2-chloro-4-mesyl-3-[(tetrahydrofuran-2-ylmethoxy)methyl]-benzoyl}-cyclohexan-1,3-dione]
[1]; 200 g ai/ha
  Herbicidal effect (%) CYPSEE: 90%
[2]; 200 g ai/ha
  Herbicidal effect (%) ECHSS: 95%
[3]; 200 g ai/ha
  Herbicidal effect (%) MOOVP: 90%
[4]; 200 g ai/ha
  Herbicidal effect (%) SAGPY: 90%
[5]; 200 g ai/ha
  Herbicidal effect (%) SCPSS: 95%
[6]; 200 g ai/ha
  Herbicidal effect (%) BBBBB: 90%
[7]; 200 g ai/ha, treatment at 1 leaf-stage, after 4 weeks
  Phytotoxicity (%) ORYSP: 0%
[8]; 200 g ai/ha
  Herbicidal effect (%) CYPSEE: 70%
[9]; 200 g ai/ha
  Herbicidal effect (%) ECHSS: 70%
[10]; 200 g ai/ha
  Herbicidal effect (%) MOOVP: 95%
[11]; 200 g ai/ha
  Herbicidal effect (%) SAGPY: 80%
[12]; 200 g ai/ha
  Herbicidal effect (%) SCPSS: 88%
[14]; rice, in vivo, 4 weeks
  Phytotoxicity (%) ORYSP: 0%

## COCc1cccc(C(O)c2nc(OC)cc(OC)n2)c1NS(=O)(=O)C(F)F (stereo not drawn) [(b-8), pyrimisulfan]
[1]; 50 g ai/ha
  Herbicidal effect (%) CYPSEE: 95%
[2]; 50 g ai/ha
  Herbicidal effect (%) ECHSS: 95%
[3]; 50 g ai/ha
  Herbicidal effect (%) MOOVP: 95%
[4]; 50 g ai/ha
  Herbicidal effect (%) SAGPY: 90%
[5]; 50 g ai/ha
  Herbicidal effect (%) SCPSS: 95%
[6]; 50 g ai/ha
  Herbicidal effect (%) BBBBB: 95%
[7]; 50 g ai/ha, treatment at 1 leaf-stage, after 4 weeks
  Phytotoxicity (%) ORYSP: 15%
[8]; 50 g ai/ha
  Herbicidal effect (%) CYPSEE: 90%
[9]; 50 g ai/ha
  Herbicidal effect (%) ECHSS: 85%
[10]; 50 g ai/ha
  Herbicidal effect (%) MOOVP: 95%
[11]; 50 g ai/ha
  Herbicidal effect (%) SAGPY: 85%
[12]; 50 g ai/ha
  Herbicidal effect (%) SCPSS: 90%
[13]; 50 g ai/ha
  Herbicidal effect (%) BBBBB: 85%
[14]; 50 g ai/ha, treatment at 3 leaf-stage, after 4 weeks
  Phytotoxicity (%) ORYSP: 5%
